In patent US20230149303A1, “BUCCAL AND ENTERIC DELIVERY OF FATTY ACIDS IN FOODS AND BEVERAGES” (priority 2020, published 2023):
Read-outs that look alike come from different tables or passages of the source.

How the values were obtained:
CB2 receptors = assay: estimated affinity relative to CBD; format: binding
Description: Because CB2 receptors have a low affinity for CBD, large doses of CBD have increasingly advantageous pharmacological effects. However, CBD is relatively expensive, so the ratio of CBD to other components is more prone to cost/efficacy trade-offs than other components of the formulation. Alternatives can skimp on CBD and even drop the ratio of CBD-to-caffeine below the recommended 1:1 ratio, which should have acceptable effects so long as the caffeine is not in such a high dosage that it causes jitters.
A greater proportion of CBD may be desirable for the purpose of binding to theorized CBD3 receptors or other presently poorly defined receptors with less affinity for CBD. A high dose of CBD, over 100 mg up to less than 250 mg can have a sedative effect that may be effective for certain individuals, though it is unlikely desirable to reach 250 mg, which is approaching the liver enzyme inhibition dose. Although, currently marketed energy drinks have as much as 250 mg caffeine, it would be difficult to fit that much caffeine into a nurdle while maintaining a 1:1 ratio of CBD-to-caffeine (not to mention the 1:2 ratio of caffeine-to-theanine), so the upper ranges of CBD become largely irrelevant in this particular product due to volumetric constraints. […]

[1] = bioavailability after oral, mucosal/buccal or enteric delivery; format: in vivo
Description: B6 helps the body produce neurotransmitters (e.g., serotonin); it can block glutamate and help the brain learn to calm. […] B6 can also be delivered enterically with nearly 100% bioavailability, as well.
In a specific implementation, microencapsulated CBD is provided as an analgesic in an edible toothpaste. In this specific implementation, 20 mg of the CBD is microencapsulated for buccal delivery to act as a localized analgesic in the mouth. CBD is degraded in the stomach but, as was discussed above, CBD is readily absorbed in mucosa. Although it is recognized not all patients will follow best practices, bioavailability estimates assume the amount of time spent brushing is 2 minutes, which is the time span over which the edible toothpaste remains in the mouth and which is long enough to make almost all of CBD formulated for buccal delivery bioavailable. Accordingly, when the product is used as directed, the CBD remains in the mouth long enough to achieve over 90% bioavailability. Thus, the amount of buccally delivered CBD can be added to that of enterically delivered CBD to determine a total systemic dose.
As with the edible toothpaste described above, a first portion of the CBD is formulated for buccal delivery and a second portion of the CBD is formulated for enteric delivery. […] CBD is degraded in the stomach but, as was discussed above, CBD is readily absorbed in mucosa. […]

TrpV1 receptor = biological target: T1, TrpV1 receptor (Homo sapiens, UniProt Q8NER1); details: absorbed through mucosa; cited from earlier work
T1 construct: It typically takes over 20 minutes for CBD absorbed through mucosa to provide significant pain relief; from tissue; host or cells: oral mucosa / body of the user (in vivo)

[2] = cited from earlier work
[3] = in vivo; cited from earlier work
[4] = mucosal quick release, retained in the mouth for several seconds; cited from earlier work

T1 sequence (Q8NER1 whole entry): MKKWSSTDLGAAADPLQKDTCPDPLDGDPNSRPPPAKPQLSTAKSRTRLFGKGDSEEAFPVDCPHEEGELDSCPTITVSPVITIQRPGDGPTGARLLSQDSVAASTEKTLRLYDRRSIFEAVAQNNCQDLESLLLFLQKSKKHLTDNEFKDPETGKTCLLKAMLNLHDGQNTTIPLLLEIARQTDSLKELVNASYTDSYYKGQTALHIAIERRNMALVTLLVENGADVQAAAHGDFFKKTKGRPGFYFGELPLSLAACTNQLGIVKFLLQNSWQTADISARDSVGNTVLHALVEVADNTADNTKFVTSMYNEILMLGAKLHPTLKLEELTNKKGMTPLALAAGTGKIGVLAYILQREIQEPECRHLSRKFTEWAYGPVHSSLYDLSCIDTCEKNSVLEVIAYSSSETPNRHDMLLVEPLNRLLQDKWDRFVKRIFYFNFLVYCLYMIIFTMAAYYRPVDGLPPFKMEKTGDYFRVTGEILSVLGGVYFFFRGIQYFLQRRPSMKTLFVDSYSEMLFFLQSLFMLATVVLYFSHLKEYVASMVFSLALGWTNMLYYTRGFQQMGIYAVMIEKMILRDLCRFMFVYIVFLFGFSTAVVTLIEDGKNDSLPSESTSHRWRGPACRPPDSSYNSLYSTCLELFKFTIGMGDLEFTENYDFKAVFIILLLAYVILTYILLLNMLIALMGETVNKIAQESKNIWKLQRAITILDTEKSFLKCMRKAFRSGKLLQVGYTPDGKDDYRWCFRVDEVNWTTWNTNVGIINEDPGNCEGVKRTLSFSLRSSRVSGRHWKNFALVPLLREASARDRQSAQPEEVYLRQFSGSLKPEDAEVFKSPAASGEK

With 2-Lineoleoyl-glycerol the “affinity relative to CBD” value (CB2 receptors) was ~1,000 times.

In the case of 2-Palmitolyl-glycerol, the “affinity relative to CBD” value (CB2 receptors) is reported as ~1,000 times.

For `C=C(C)[C@@H]1CCC(C)=C[C@H]1c1c(O)cc(CCCCC)cc1O` [CBD], the bioavailability ([1]; buccal delivery from edible toothpaste, estimate assumes 2 minutes brushing) is given as “over 90%”, the bioavailability ([1]; buccal delivery from mouthwash, estimate assumes 30 seconds to one minute in the mouth) is given as “over 90%” and the “time to provide significant pain relief” value (TrpV1 receptor) is given as “over 20 minutes”. For the same molecule, the “half-life in the bloodstream” value ([2]; frequent user) was 120 to 312 h and the “half-life in the bloodstream” value ([2]; infrequent user) was “about 1.3 days”.

For `CC1CCC(C(C)C)C(O)C1` (stereo not drawn) [menthol], the lethal dose [3] is given as no less than 50 mg/kg.

In the case of `CCCCCCCCCCCCCCCC(=O)OCc1cnc(C)c(OC(=O)CCCCCCCCCCCCCCC)c1COC(=O)CCCCCCCCCCCCCCC` [pyridoxine tripalmitate], the bioavailable [4] is listed as “over 90%”.
